The record followed here is patent publication US7947854B2, “Bis-cationic compounds and use thereof” (The University of Sydney, priority 2003, dated 2011).

The structures appear in SMILES notation. Like-named read-outs stand apart in the source and are kept apart here.

Assay [1] concerns Cryptococcus neoformans ATCC 90112. Nature of the assay: Antifungal susceptibility testing, microdilution MIC. The format is cell-based. The note with it: Cryptococcus neoformans, ATCC90112. The protocol:
(§1) Antifungal susceptibility testing. The antifingal activity of the compounds was measured by a standard microdilution method. […] The fungal strains tested included Cryptococcus neoformans H99, Cryptococcus neoformans ATCC 90112 and Candida albicans ATCC 10231. All tests were performed in duplicate.
(§2) A range of cationic compounds were assayed for antifungal activity in a standardised serial dilution sensitivity test against C. neoformans ([…]) and C. Albicans (ATCC 10231).
On the technique in general: Dilution methods test growth across graded concentrations, often in twofold steps.

The subject of assay [2] is Candida albicans ATCC 10231. Described as above. The format is cell-based. The note with it: Candida albicans, ATCC10231. The procedure:
as §1, §2

Assay [3] addresses T1, Porcine pancreatic phospholipase A2 (Sus scrofa, UniProt P00592).
T1 construct: purchased Sigma, St. Louis MO, USA
Nature of the assay: Pancreatic phospholipase assay. The format is biochemical. As to conditions: read-out: ppPLA2, percentage inhibition of activity. The procedure: Pancreatic phospholipase assay. Porcine pancreatic phospholipase A2 suspension in 3.2M ammonium sulfate (2.9 mg protein/mL, Sigma St.Louis Mo., USA) was used. One part of well mixed enzyme suspension was added to 4 parts of buffer (10 mM Tris/HCl, pH 8.2; 10 mM CaCl2. Activity and inhibition by test compounds was then measured by the radiometric method described in Example 2 for fungal PLB activity. However, 25 μL enzyme solution was used, and the reaction time was 1 hour. These conditions result in ˜60% substrate conversion in the inhibitor-free control.

In assay [4] the test system is secreted phospholipase B (PLB activity). The experiment in a line: Radiometric assay, secreted PLB activity. In kind it is biochemical, Cryptococcus neoformans H99. The note with it: for PLB, percentage inhibition of activity: Secretory Cryptococcal H99 Phospholipase. The procedure: Fungal isolates and media. […] Isolate H99 was kindly supplied by Dr. Gary Cox (Duke University Medical Center, Durham, N.C., USA), and subcultured onto Sabouraud dextrose agar (SDA) at 30° C.
Preparation of supernatants containing secreted phospholipase activities. Isolate H99 was grown to confluence on SDA in 16 cm diameter Petri dishes for 72 h at 30° C. in air. Cells scraped from 10-20 dishes were washed sequentially with isotonic saline and imidazole buffer (10 mM imidazole, 2 mM CaCl2, 2 mM Mg Cl2, 56 mM D-Glucose, made up in isotonic saline, pH 5.5), resuspended in a volume of this buffer of about 10% of the cell volume, and incubated for 24 h at 37° C. The cell-free supernatant was separated by centrifugation as previously described and stored at −70° C.
Radiometric assay method for phospholipases. Enzyme activities were measured as described previously in a final volume of 125 μL at 37° C. For the determination of secreted PLB activity, carrier dipalmitoyl phosphatidylcholine (DPPC, final concentration 800 μM) and 1,2-di[1-^14C] palmitoyl phosphatidylcholine (20,000 dpm) were dried under nitrogen and suspended in 125 mM imidazole acetate buffer (assay buffer, pH 4.0) by sonication using a Branson 450 sonifier. The reaction time was 22 min, using 1 μg total protein and PLB activity was determined by the rate of decrease of the radiolabelled PC substrate, with appearance of the label in free fatty acid. This assay also simultaneously allows for the determination of phospholipase A, C and D activities. These activities were measured by the appearance of radiolabel from PC in Lyso PC, diacylglycerol and phosphatidic acid, respectively.
All reactions were terminated by adding 0.5 mL of chloroform:methanol (2:1 v/v). The reaction products were extracted by the method as disclosed in Bligh, E. C. and W. J. Dyer. 1959 ‘A rapid method of total lipid extraction and purification.’ Can. J. Biochem. Physiol. 37:911-917, separated by TLC and quantified as previously described. In the case of PLC activity, the TLC plates were developed in petroleum ether (BP 60-80° C.): diethyl ether: acetic acid (90:15:1, v/v/v) instead of chloroform:methanol:water (65:25:4, v/v/v).
Preparation of inhibitors and use in assays. The following compounds were tested (for structures, see FIG. 2): compound 1, 1,12-bis(tributylphosphonium)dodecane dibromide (Fluka AG, Buchs, Switzerland); compound 2, 1,10-bis(tributylammonium)-decane dibromide; compound 3, 1,12-bis(tributylammonium)do-decane dibromide (both synthesised in-house); compound 4, 1,10-bis(trimethylammonium)decane dibromide [“decamethonium”] (Sigma, St. Louis Mo., USA). All compounds were prepared as stock solutions of 700 μM in assay buffer containing 5 mM EDTA, which was then diluted serially with buffer to obtain solutions of 70, 7, 0.7 and 0.07 μM. In each assay, 45 μL of these solutions was used, and the final volume of 125 μL was made up of substrate, enzyme and buffer. The radiometric assay was carried out as above. Inhibition was calculated as the percent of substrates (DPPC or Lyso-PC) remaining in the case of PLB and LPL activities, or of DPPC produced, in the case of the LPTA activity. The amounts converted, or produced, in the inhibitor-free control were normalised to 100%, and the inhibition calculated against it. All assays were done in triplicate.
Under these conditions only PLB, LPL and LPTA activities (both secreted and cell-associated) were measured. Initially, compounds deemed to be potential inhibitors were assayed at 25 and 250 μM. Those showing some inhibition were then also assayed at 2.5 and 0.25 μM.

T1 sequence (P00592 23-146): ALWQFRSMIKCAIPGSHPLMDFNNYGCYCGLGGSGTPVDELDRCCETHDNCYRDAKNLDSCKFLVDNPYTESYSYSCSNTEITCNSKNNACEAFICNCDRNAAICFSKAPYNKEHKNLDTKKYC

In the case of `CCCC[N+](CCCC)(CCCC)CCCCCCCCCC[N+](CCCC)(CCCC)CCCC` [Compound 2, 1,10-bis(tributylammonium)-decane dibromide], the MIC (in general, the lowest concentration found to suppress growth) was 11 µM in assay [1] (Table 6, no visible growth after 72 h at 35° C., read-out: MIC C. neof. ATCC 90112); 11 µM in assay [1] (Table 7, read-out: MIC (μM) Crypto. (ATCC 90112)); 88 µM in assay [2] (Table 6, no visible growth after 48 h at 35° C., read-out: MIC C. albicans ATCC 10231); 88 µM in assay [2] (Table 7, read-out: MIC (μM) C. alb. (10231)). In addition, in assay [3] (0.25 μM), the inhibition – broadly, the change of the read-out against control, counted positive when it falls – at 0.25 µM was 0%. The inhibition at 2.5 µM in assay [3] (2.5 μM) came out at 0%. Further, the inhibition at 25 µM in assay [3] (25 μM) was determined as 25%. Further, the inhibition at 250 µM in assay [3] (250 μM) turned out to be 65%. For the same compound, the “PLB assay (% inhibition)” value in assay [4] (0.25 μM) is 0%; in assay [4] (2.5 μM) it was 30%; in assay [4] (25 μM) it was 80%; in assay [4] (250 μM), 90%. Besides, the “PLB, percentage inhibition of activity” value is 0% in assay [4] (0.25 μM), 30% in assay [4] (2.5 μM), 80% in assay [4] (25 μM) and 90% in assay [4] (250 μM).
